Laboratory results taken from patent US11724987B2, “Compositions and methods of treating retinal disease” (Aldeyra Therapeutics, Inc., priority 2005, dated 2023).

Experiments:
[1] = test system: human retinal vision; conditions: human occupational exposure, absorbed by the skin; cited from earlier work
[2] = vendor value; cited from earlier work
[3] = test system: dark adapted rats; experiment: ERG analysis of dark adaptation, dose ranging protocol; assay type: in vivo, rat; conditions: i.p.
Experimental: Dark adaptation is the recovery of visual sensitivity following exposure to light. Dark adaptation has multiple components including both fast (neuronal) processes and slow (photochemical) process. Regeneration of visual pigment is related to the slow photochemical process. Dark adaptation rates are measured for several reasons. Night blindness results from a failure to dark adapt (loss of visual light sensitivity). It is possible to find a safe dose for night vision by measuring drug effects on dark adapted visual light sensitivity.
An electroretinogram (ERG) is used measure dark adaptation under normal vs. drug conditions. ERG is the measurement of the electric field potential emitted by retinal neurons during their response to an experimentally defined light stimulus. More specifically, ERG measures retinal field potentials at the cornea after a flash of light (e.g., 50 ms). Field strengths are 10^2 to 10^3 microvolts, originating in retinal cells.
In a typical ERG analysis of dark adaptation experiment, every rat is dark adapted for hours to reach a consistent state of light sensitivity. […]
The ERG measurement is taken after a specific duration of post-bleach dark recovery (e.g., 30 min) determined previously by kinetic analysis (see FIGS. 6a and 6b). […]

[4] = negative control; cited from earlier work
[5] = NMR analysis of RAL reactions (Schiff base condensation and ring formation); conditions: for tau (minutes) condense: Schiff base condensation with RAL; for tau (minutes) ring: ring formation after condensation with RAL

**Q.** What does the source list for `CCOC(=O)c1cccc(N)c1` [Compound 6, tricaine methane sulfonate]?
**A.** effect on night vision [1]: attenuates night vision reversibly; calculated logP vendor [2]: 1.8; ERG light sensitivity of dark adapted rats ([3]; dose ranging, FIG. 7): lowers light sensitivity of dark adapted rats in a dose dependent manner; duration of effect on vision ([3]; rats, ERG): decreases after 3 hours

**Q.** With `CCOC(=O)Cc1csc(N)n1` [Compound 4] as the compound, how does the “calculated logP vendor” value [2] read?
**A.** Its value is 1.4.

**Q.** Which “calculated logP vendor” value [2] does the source give for `CCOC(=O)c1csc(N)n1` [Compound 1] here?
**A.** The value was 1.2.

**Q.** For `Nc1nccs1` [Compound 3], which “calculated logP vendor” value [2] is on record?
**A.** Its value is 0.8.

**Q.** With `CCN(CC)CC(=O)Nc1c(C)cccc1C` [lidocaine] as the compound, how does the Schiff base formation [4] read?
**A.** Its Schiff base formation is “does not form a Schiff base”.

**Q.** Which “tau (minutes) condense” value [5] does the source give for `CC(C)(O)c1nc2ccc(Cl)cc2cc1N` [Compound 9] here?
**A.** The value was 320 min.

**Q.** And the “tau (minutes) ring” value [5]?
**A.** Its value is 568 min.

**Q.** For `COC(=O)c1nc(N)sc1Cl` [Compound 2], which “calculated logP vendor” value [2] is on record?
**A.** Its value is 1.3.

**Q.** Which results are given for `CC(C)(O)c1ccccc1N` [Compound 8]?
**A.** tau (minutes) condense [5]: 122 min; tau (minutes) ring [5]: 109 min
